# Measured values from PubChem BioAssay (NCI).
#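 These data come from cells grown in 96-well plates and exposed to compound for 48 hours at five concentrations. TGI is the concentration that stops growth completely.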
# Experiments:
# Assay in all cases: NCI anticancer screen, dose series, 48 h
# [1] = test system: UO-31 renal
# [2] = test system: MDA-MB-435
# [3] = test system: SNB-75 CNS
# [4] = test system: SK-OV-3 ovarian
# [5] = test system: NCI-H226 lung
# [6] = test system: M14 melanoma
# [7] = test system: HCT-116 colon
# [8] = test system: HCT-15 colon
# [9] = test system: CAKI-1 renal
# [10] = test system: MALME-3M melanoma
# [11] = test system: HOP-92 NSCLC
# [12] = test system: NCI-H460 lung
# [13] = test system: SN12C renal
# [14] = test system: SW-620 colon
# [15] = test system: SR leukemia
# [16] = test system: HT29 colon
# [17] = test system: A498 renal
# [18] = test system: HS 578T breast
# [19] = test system: EKVX NSCLC
# [20] = test system: HOP-62 NSCLC
Compound,TGI [1],TGI [2],TGI [3],TGI [4],TGI [5],TGI [6],TGI [7],TGI [8],TGI [9],TGI [10],TGI [11],TGI [12],TGI [13],TGI [14],TGI [15],TGI [16],TGI [17],TGI [18],TGI [19],TGI [20]
O=C1C(N2CCN(c3ccccn3)CC2)=C(Cl)C(=O)c2ncccc21,> 5.53 µM,> 5.27 µM,> 10 µM,> 10 µM,> 10 µM,3.82 µM,3.13 µM,4.06 µM,2.12 µM,2.75 µM,2.94 µM,> 10 µM,3.22 µM,2.78 µM,> 6.21 µM,> 6.16 µM,> 10 µM,> 10 µM,> 10 µM,> 10 µM
CC[C@@]1(O)C(=O)OCc2c1cc1n(c2=O)Cc2c-1nc1ccccc1c2/C=N\NC(=O)C(N)CO (stereo not given in full),11 µM,> 31.6 µM,0.312 µM,> 100 µM,23.2 µM,7.51 µM,22.8 µM,> 100 µM,> 27.2 µM,> 100 µM,50.5 µM,25.3 µM,25.3 µM,> 100 µM,3.59 µM,> 90.4 µM,12.2 µM,> 100 µM,> 100 µM,9.35 µM
COc1cc(C=O)cc(/C=N/n2c3ccccc3c3ccccc32)c1O,> 100 µM,47.5 µM,15.7 µM,> 100 µM,> 100 µM,> 100 µM,> 100 µM,> 100 µM,> 100 µM,> 100 µM,9.58 µM,> 100 µM,> 100 µM,> 100 µM,> 100 µM,> 100 µM,48.7 µM,> 100 µM,> 100 µM,> 100 µM
O=C(c1ccccc1)n1c(Cc2ccccc2)nc2cc(C34CC5CC(CC(C5)C3)C4)ccc21,> 100 µM,> 100 µM,> 100 µM,> 100 µM,> 100 µM,> 100 µM,> 100 µM,48.5 µM,> 100 µM,> 100 µM,> 100 µM,> 100 µM,> 100 µM,> 100 µM,> 100 µM,> 100 µM,> 100 µM,> 100 µM,> 100 µM,> 100 µM
CC[C@H](CCCC[C@H]1CC[C@@H]2CC(=O)C[C@H]12)OC,> 100 µM,> 100 µM,> 100 µM,> 100 µM,> 100 µM,> 100 µM,> 100 µM,> 100 µM,> 100 µM,> 100 µM,> 100 µM,> 100 µM,> 100 µM,> 100 µM,> 100 µM,> 100 µM,> 100 µM,> 100 µM,> 100 µM,> 100 µM
C/C(=C(/C)c1ccc(O)cc1)c1ccc(O)cc1,> 100 µM,> 100 µM,> 100 µM,> 100 µM,> 100 µM,> 100 µM,> 100 µM,> 100 µM,> 100 µM,> 100 µM,91.6 µM,> 100 µM,> 100 µM,> 100 µM,83.8 µM,> 100 µM,> 100 µM,75.6 µM,88.2 µM,> 100 µM
